These results are taken from US20250179059A1 (The Regents of the University of California, priority 2021, published 2025).

pIC50: −log10 of the molar value. Like-named read-outs stand apart in the source and are kept apart here.

Broadly, the pIC50 is the negative decadic logarithm of the IC50, by convention in mol/L. The GI50 is the concentration that inhibits growth by half.

In assay [1] the target is T1, human BRD4 bromodomain II (Homo sapiens, UniProt O60885).
T1 construct: human BRD4 bromodomain II [based on Genbank NM_058243, residues 349-460]; host or cells: E. coli
The experiment in a line: Bromodomain binding assay (AlphaScreen), BRD4 BDII. Put shortly: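 Compounds (10-point, 3-fold series) were preincubated 30 min at room temperature with E. coli-expressed N-terminal His6-tagged BRD4 BDII (residues 349-460) or BDI (residues 44-170) in 50 mM HEPES pH 7.5, 100 mM NaCl, 0.05% CHAPS, 0.1% BSA, 1% DMSO. Displacement of biotinylated tetra-acetylated H4 1-21 peptide was read by AlphaScreen; IC50 from curve fitting.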
On the technique in general: Bead proximity is the source of the signal in Alpha formats.

The subject of assay [2] is human SKM-1 acute myeloid leukemia cells. Description: SKM-1 antiproliferation cell-based assay (ATPlite). The note with it: Homo sapiens. Put shortly: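 Log-phase cells in RPMI 1640/15% FBS were seeded at 34722 cells/mL and exposed for 4 days to nine-concentration DMSO serial dilutions in triplicate. Viability was read as ATP luminescence (ATPlite 1step), and IC50 values came from variable-slope non-linear regression.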
(Cellular ATP, detected with luciferase, serves as a proxy for viable cell number.)

[3] abbreviates: AlphaScreen assay, Table C2, read-out: BRD4 BDII IC50.
Where [4] appears, read: SKM-1, 96 h, SKM-1 antiproliferation assay, 4 days, Table C2.
The mark [5] stands for this setting: BRD4 BDII AlphaScreen assay, read-out: BRD4 BD2 IC50.
[6] abbreviates: SKM-1, SKM-1 antiproliferation assay.

In the case of `Cn1ccn(-c2ccc(-c3cc(F)cc(-c4cc(N5CCNCC5)c5nccnc5c4)c3O)cc2Cl)c1=O` [Example 547, 1-(3-chloro-5′-fluoro-2′-hydroxy-3′-(8-(piperazin-1-yl)quinoxalin-6-yl)-[1,1′-biphenyl]-4-yl)-^3-methyl-1H-imidazol-2(3H)-one], the pIC50 in assay [1] (setting [3]) was 9.00 to 11.00. The GI50 in assay [2] (setting [4]) was 0.3 to 30 nM.

For the compound `CC(C)C(=O)Nc1cc(-c2cc(F)cc(-c3ccc(-n4ccn(C)c4=O)c(Cl)c3)c2O)cc(N2CC[C@H](N)C2)n1` [Example 524, (S)-N-(6-(3-aminopyrrolidin-1-yl)-4-(3′-chloro-5-fluoro-2-hydroxy-4′-(3-methyl-2-oxo-2,3-dihydro-1H-imidazol-1-yl)-[1,1′-biphenyl]-3-yl)pyridin-2-yl)isobutyramide], in assay [1] (setting [3]), the pIC50 was 8.00 to 9.00. For the same compound, the GI50 in assay [2] (setting [4]) is 0.3 to 30 nM.

For `Cc1cc(-c2ccc(-n3ccn(C)c3=O)c(Cl)c2)c(O)c(-c2cc(F)cc(N3CCN(C(C)(C)C)CC3)c2)n1` [Example 1014, 1-(4-(2-(3-(4-(tert-butyl)piperazin-1-yl)-5-fluorophenyl)-3-hydroxy-6-methylpyridin-4-yl)-2-chlorophenyl)-3-methyl-1H-imidazol-2(3H)-one], the negative-log IC50 (pIC50) in assay [1] (setting [5]) was 9.00 to 11.00. Further, in assay [2] (setting [6]), the GI50 lay in the range of 0.3 to 30 nM.

Consider `CN1CCN(c2ccc(-c3cc(-c4ccccc4)cc(-c4ccnc(N5CCNCC5)c4)c3O)cc2Cl)C1=O` [Example 318, 1-(3-chloro-6′-hydroxy-5′-(2-(piperazin-1-yl)pyridin-4-yl)-[1,1′:3′,1″-terphenyl]-4-yl)-3-methylimidazolidin-2-one], for which the pIC50 in assay [1] (setting [3]) is under 7.00. This compound showed a GI50 in assay [2] (setting [4]) of 300 to 3000 nM.

Consider `CC(=O)Nc1ccc(-c2cc(F)cc(-c3ccnc(N4CC5(CNC5)C4)c3)c2O)cc1Cl` [Example 298, N-(3′-(2-(2,6-diazaspiro[3.3]heptan-2-yl)pyridin-4-yl)-3-chloro-5′-fluoro-2′-hydroxy-[1,1′-biphenyl]-4-yl)acetamide], for which the pIC50 in assay [1] (setting [3]) is 7.00 to 8.00. The same compound registered a GI50 in assay [2] (setting [4]) of 30 to 300 nM.

For the compound `CC(=O)NCc1ncc(-c2cc(F)cc(-c3ccc(N4CCN(C)C4=O)c(Cl)c3)c2O)cc1N1CCNCC1` [Example 370, N-((5-(3′-chloro-5-fluoro-2-hydroxy-4′-(3-methyl-2-oxoimidazolidin-1-yl)-[1,1′-biphenyl]-3-yl)-3-(piperazin-1-yl)pyridin-2-yl)methyl)acetamide], the pIC50 in assay [1] (setting [3]) was 8.00 to 9.00. The compound further showed a GI50 in assay [2] (setting [4]) of 30 to 300 nM.

With `C[C@@H]1CN(c2cc(-c3cc(F)cc(-c4ccc(-n5ccn(C)c5=O)c(Cl)c4)c3O)cc3c2ncn3C)CCN1` [Example 576], the pIC50 in assay [1] (setting [3]) was 9.00 to 11.00. In assay [2] (setting [4]), this compound had a GI50 of 0.3 to 30 nM.

Turning to `Cn1ccn(-c2ccc(-c3cc(F)cc(-c4cc(N5CC6CCC(C5)N6)c5cn[nH]c5c4)c3O)cc2Cl)c1=O` [Example 573], the pIC50 in assay [1] (setting [3]) was 9.00 to 11.00. This compound also displayed a GI50 in assay [2] (setting [4]) of 0.3 to 30 nM.

Turning to `CC(=O)Nc1cccc(-c2cc(F)cc(-c3cccc(N4CCC(C)(O)C4)c3)c2O)c1Cl` (stereo not drawn) [Example 893], in assay [1] (setting [5]), the pIC50 is under 7.00. Besides, the GI50 in assay [2] (setting [6]) was in the range of 300 to 3000 nM.

As to `Cn1ccn(-c2ccc(-c3cc(F)cc(-c4cc(N5CCN(C(C)(C)C)CC5)n(C)c(=O)c4)c3O)cc2Cl)c1=O` [Example 735, 6-(4-(tert-butyl)piperazin-1-yl)-4-(3′-chloro-5-fluoro-2-hydroxy-4′-(3-methyl-2-oxo-2,3-dihydro-1H-imidazol-1-yl)-[1,1′-biphenyl]-3-yl)-1-methylpyridin-2(1H)-one], the pIC50 in assay [1] (setting [3]) was 9.00 to 11.00. The GI50 in assay [2] (setting [4]) fell in the range of 0.3 to 30 nM.

With `CC[C@@H]1CN(c2cc(-c3cc(F)cc(-c4ccc(-n5ccn(C)c5=O)c(Cl)c4)c3O)cc3[nH]ncc23)CCN1` [Example 594, (R)-1-(3-chloro-3′-(4-(3-ethylpiperazin-1-yl)-1H-indazol-6-yl)-5′-fluoro-2′-hydroxy-[1,1′-biphenyl]-4-yl)-3-methyl-1H-imidazol-2(3H)-one], the pIC50 in assay [1] (setting [3]) was 9.00 to 11.00. Besides, the GI50 in assay [2] (setting [4]) lay within 0.3 to 30 nM.

Consider `C[C@@H]1CN(c2cc(-c3cc(F)cc(-c4ccc(N5CCN(C)C5=O)c(Cl)c4)c3O)ccn2)CCN1` [Example 359, (R)-1-(3-chloro-5′-fluoro-2′-hydroxy-3′-(2-(3-methylpiperazin-1-yl)pyridin-4-yl)-[1,1′-biphenyl]-4-yl)-3-methylimidazolidin-2-one], for which the pIC50 in assay [1] (setting [3]) is 8.00 to 9.00. This compound also had a GI50 in assay [2] (setting [4]) of 30 to 300 nM.

Consider `CC(=O)Nc1ccc(-c2cccc(-c3cc(Cl)cc(N4CCNCC4)c3)c2O)cc1F` [Example 214, N-(3″-chloro-3-fluoro-2′-hydroxy-5″-(piperazin-1-yl)-[1,1′:3′,1″-terphenyl]-4-yl)acetamide], for which the pIC50 in assay [1] (setting [3]) is 8.00 to 9.00. The same compound came in with a GI50 in assay [2] (setting [4]) of 300 to 3000 nM.

On to `Cn1ccn(-c2ccc(-c3cc(F)cc(-c4ccnc(N5CCNC(C(F)(F)F)C5)c4)c3O)cc2Cl)c1=O` (stereo not drawn) [Example 454, 1-(3-chloro-5′-fluoro-2′-hydroxy-3′-(2-(3-(trifluoromethyl)piperazin-1-yl)pyridin-4-yl)-[1,1′-biphenyl]-4-yl)-3-methyl-1H-imidazol-2(3H)-one], for which the pIC50 in assay [1] (setting [3]) is 8.00 to 9.00. For the same compound, the GI50 in assay [2] (setting [4]) is 300 to 3000 nM.

As to `Cn1ccn(-c2ccc(-c3cc(F)cc(-c4ccnc(N5CCC(C)(NCC(F)(F)F)C5)c4)c3O)cc2Cl)c1=O` (stereo not drawn) [Example 895], the pIC50 in assay [1] (setting [5]) is 8.00 to 9.00. The compound further had a GI50 in assay [2] (setting [6]) of 30 to 300 nM.

Take `COc1ncc(-c2cc(F)cc(-c3ccc(-n4ccn(C)c4=O)c(Cl)c3)c2O)cc1N1CC(F)(F)[C@@](C)(O)C1` [Example 899]: the pIC50 in assay [1] (setting [5]) was 8.00 to 9.00. Moreover, the GI50 in assay [2] (setting [6]) lay in the range of 300 to 3000 nM.

On to `Cn1ccn(-c2ccc(-c3cc(Cl)cc(-c4cncc(N5CC[C@H](N)C5)c4)c3O)cc2Cl)c1=O` [Example 510, (S)-1-(3′-(5-(3-aminopyrrolidin-1-yl)pyridin-3-yl)-3,5′-dichloro-2′-hydroxy-[1,1′-biphenyl]-4-yl)-3-methyl-1H-imidazol-2(3H)-one], for which the pIC50 in assay [1] (setting [3]) is 7.00 to 8.00. The same compound showed a GI50 in assay [2] (setting [4]) of 30 to 300 nM.

Take `O=C1CCCCN1c1ccc(-c2cccc(-c3ccnc(N4CCNCC4)c3)c2O)cc1Cl` [Example 282, 1-(3-chloro-2′-hydroxy-3′-(2-(piperazin-1-yl)pyridin-4-yl)-[1,1′-biphenyl]-4-yl)piperidin-2-one]: the pIC50 in assay [1] (setting [3]) was 7.00 to 8.00. The compound further registered a GI50 in assay [2] (setting [4]) of 300 to 3000 nM.

For the compound `Cn1ccn(-c2ccc(-c3cc(F)cc(-c4ccnc(N5CC[C@@H](C(N)=O)C5)c4)c3O)cc2Cl)c1=O` [Example 761, (R)-1-(4-(3′-chloro-5-fluoro-2-hydroxy-4′-(3-methyl-2-oxo-2,3-dihydro-1H-imidazol-1-yl)-[1,1′-biphenyl]-3-yl)pyridin-2-yl)pyrrolidine-3-carboxamide], the pIC50 in assay [1] (setting [3]) was 8.00 to 9.00. The GI50 in assay [2] (setting [4]) fell in the range of 30 to 300 nM.

For `CC(=O)Nc1ccc(-c2cccc(-c3ccnc(N4CC[C@@H](O)C4)c3)c2O)cc1F` [Example 251, (R)-N-(3-fluoro-2′-hydroxy-3′-(2-(3-hydroxypyrrolidin-1-yl)pyridin-4-yl)-[1,1′-biphenyl]-4-yl)acetamide], the pIC50 in assay [1] (setting [3]) was 7.00 to 8.00. Also, the GI50 in assay [2] (setting [4]) was in the range of 30 to 300 nM.

For `C#CCN1CCN(c2cc(-c3cc(F)cc(-c4ccc(-n5ccn(C)c5=O)c(Cl)c4)c3O)ccn2)CC1` [Example 669, 1-(3-chloro-5′-fluoro-2′-hydroxy-3′-(2-(4-(prop-2-yn-1-yl)piperazin-1-yl)pyridin-4-yl)-[1,1′-biphenyl]-4-yl)-3-methyl-1H-imidazol-2(3H)-one], the pIC50 in assay [1] (setting [3]) was 9.00 to 11.00. This compound also came in with a GI50 in assay [2] (setting [4]) of 30 to 300 nM.
